Active and inactive are the calls of the source.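 How the source made its calls: active means clearly stronger inhibition of the target decarboxylase than of the coupling enzymes tested in parallel without it; inactive means the rest.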
Target: diphosphomevalonate decarboxylase (Streptococcus pneumoniae D39)
Assay: diphosphomevalonate decarboxylase inhibition dose curves – biochemical, PK/LDH-coupled NADH fluorescence, hexokinase coupling counter-screen, dose response (AID 550)
Conditions: purified DPM-DC

SMILES	outcome	IC50
CCOc1ccc(C(=O)O)cc1OC	inactive	–
Cc1nc(-c2cnn(-c3ccccc3)c2)c2cc(C)oc2n1	inactive	–
CN(C)C(=O)N1CCC(C(=O)NCc2cccs2)CC1	inactive	–
O=S(=O)(Nc1ccc(C(F)(F)F)cc1)c1cnc[nH]1	inactive	–
CC(O)COc1ccc(/C(=N/O)c2ccccc2)cc1 (stereo not given)	inactive	–
O=P1(NC2CCCC2)COc2ccccc2OC1	inactive	–
CC(C)CC(=O)NCC(C)NC(=O)CC(C)C (stereo not given)	inactive	–
CCOC(=O)COc1ccc2nsnc2c1Cl	inactive	–
C=C(C)Cn1c(COc2ccccc2)nnc1SCC(=O)O	inactive	–
O=C(CSc1ncnc2c1cnn2-c1ccccc1)Nc1ccc2c(c1)OCO2	inactive	–
CCOC(=O)c1[nH]c2ccc(OC)cc2c1NC(=O)CN1CCN(c2ccccn2)CC1	inactive	–
CCOC(=O)c1cc2c(=O)n(C)c3ccccc3c2s1	inactive	–
S=c1[nH]nc(-c2ccccc2)n1C1C=CCCC1 (stereo not given)	inactive	–
Cc1c(C(=O)OCC(C)(C)CN(C)C)oc2ccccc12	inactive	–
CCc1ccc(NC(=O)c2cnc3scc(C)n3c2=O)cc1	inactive	–
Cc1cc(O)c(C=Nc2cccc(Cl)c2)c(=O)o1	inactive	–
Cc1cccc2cc(CN(Cc3ccco3)S(=O)(=O)c3ccc4c(c3)OCCO4)c(=O)[nH]c12	inactive	–
O=C1CC(c2cccnc2)c2cc3c(cc2N1)OCO3 (stereo not given)	inactive	–
Cc1c(C(=O)NCc2ccc3c(c2)OCO3)sc2nc(-c3ccccc3)cn12	inactive	–
O=C(c1noc2c1CCCC2)N1CCCCC1	inactive	–
Cn1c(SCC(=O)N2CCOCC2)nnc1-c1ccc(NC(=O)c2ccccc2F)cc1	inactive	–
CC1CC(C)CN(CCCNC(=O)Cn2ncc3c(=O)oc4ccccc4c32)C1 (stereo not given)	inactive	–
O=C(C1CCCCC1)N1CCC(c2nc3c(nnn3Cc3ccccc3Cl)c(=O)[nH]2)CC1	inactive	–
O/N=C1\CCC\C1=C/c1ccco1	inactive	–
CCc1c(C)c(C#N)c2nc3ccccc3n2c1Nc1c(C)n(C)n(-c2ccccc2)c1=O	inactive	–
CCOC(=O)c1c(Nc2nc(C)c(C(=O)NC)s2)sc(C)c1C	inactive	–
Cc1ccccc1Cc1c(C)nc2c(C(=O)N3CCN(Cc4ccc5c(c4)OCO5)CC3)cnn2c1C	inactive	–
Cn1c(-c2ccc(N)cc2)nc2ccccc21	inactive	–

SMILES	outcome	IC50
Cc1cnc(SCCc2ccncc2)nc1C	inactive	–
O=C(CSc1nnc2ccccn12)Nc1ccccc1C(=O)NC1CC1	inactive	–
N#CC(C(=O)NC1CCCCC1)c1nc2ccccc2nc1N1CCCCC1 (stereo not given)	inactive	–
CCOc1ccc(N(CC(=O)NC2CCCC(C)C2C)S(=O)(=O)c2c(C)noc2C)cc1 (stereo not given)	inactive	–
Cc1ccsc1C1C(C(=O)O)c2ccccc2C(=O)N1C (stereo not given)	inactive	–
Cc1ccc(S(=O)(=O)NCCN2CCOCC2)cc1C	inactive	–
COC(=O)C1=C(C)OC(N)=C(C#N)C1c1cc(OC)c(OCC(N)=O)cc1Cl (stereo not given)	inactive	–
CN(C)C(=O)Nc1cnc2ccccc2c1	inactive	–
Cc1ccc(S(=O)(=O)N2CCOCC(=O)NCCOCCNC(=O)COCC2)cc1	inactive	–
COc1ccc(N2CCN(CCNS(=O)(=O)c3cccc4nsnc34)CC2)cc1	inactive	–
COc1ccc(C2CC(c3cccc(C)c3)n3nc(N)nc3N2)cc1 (stereo not given)	inactive	–
O=C1C(Cl)=C(NCC2CCCO2)C(=O)N1Cc1ccccc1 (stereo not given)	inactive	–
CCc1ccc(S(=O)(=O)NCc2cn3ccsc3n2)s1	inactive	–
CCCN(CC(=O)c1cc(C)n(C)c1C)S(=O)(=O)c1cccc(C(F)(F)F)c1	inactive	–
Cc1nc2nc(C)c(CCC(=O)N3CCOCC3)c(C)n2n1	inactive	–
Cc1cccc(C(=O)Nc2cc(=O)n(C)c(=O)n2C)c1	inactive	–
Cc1cc(C(=O)CSc2nnnn2-c2ccc(Cl)cc2)c(C)n1CC1CCCO1 (stereo not given)	inactive	–
CC1(C)C(C=C(Cl)Cl)C1C(=O)N1CCN(c2ccccc2)CC1 (stereo not given)	inactive	–
COC(=O)Cn1c(=NC(=O)CSC(C)=O)sc2ccccc21	inactive	–
CC1=C(C(=O)OCC2CCCO2)C(c2ccncc2)C2=C(CCCC2=O)N1 (stereo not given)	–	inactive
CC(C)(CO)NC(=O)C(c1ccccc1)c1ccccc1	inactive	–
CCOc1cc(NC(=O)c2ccco2)c(OCC)cc1NC(=O)CCc1ccc(OC)cc1	inactive	–
O=S(=O)(Nc1cccc2ncccc12)c1cccs1	inactive	–
O=C1NC(=O)C(CC(=O)N(c2ccccc2)C2(C(=O)NC3CCCC3)CCCCC2)N1 (stereo not given)	inactive	–
COCCNC(=O)c1cnn2c(C(F)(F)F)cc(-c3ccc4c(c3)OCO4)nc12	inactive	–
CCCc1nnc(NC(=O)CN2CCOCC2)s1	inactive	–
Clc1c(-c2nnc3n2CCC3)sc2ccccc12	inactive	–
